Experimental data as given in ChEMBL document CHEMBL1909046, “DrugMatrix in vitro pharmacology data”.

How the values were obtained:
[1] = target: T1, Muscarinic acetylcholine receptor M4 (Homo sapiens, UniProt P08173); format: cell membranes, CHO-K1, Membrane; details: cho-k1; further: in other assays of this panel Not Active means under 50% inhibition at 10 µM
T1 sequence (P08173 whole entry): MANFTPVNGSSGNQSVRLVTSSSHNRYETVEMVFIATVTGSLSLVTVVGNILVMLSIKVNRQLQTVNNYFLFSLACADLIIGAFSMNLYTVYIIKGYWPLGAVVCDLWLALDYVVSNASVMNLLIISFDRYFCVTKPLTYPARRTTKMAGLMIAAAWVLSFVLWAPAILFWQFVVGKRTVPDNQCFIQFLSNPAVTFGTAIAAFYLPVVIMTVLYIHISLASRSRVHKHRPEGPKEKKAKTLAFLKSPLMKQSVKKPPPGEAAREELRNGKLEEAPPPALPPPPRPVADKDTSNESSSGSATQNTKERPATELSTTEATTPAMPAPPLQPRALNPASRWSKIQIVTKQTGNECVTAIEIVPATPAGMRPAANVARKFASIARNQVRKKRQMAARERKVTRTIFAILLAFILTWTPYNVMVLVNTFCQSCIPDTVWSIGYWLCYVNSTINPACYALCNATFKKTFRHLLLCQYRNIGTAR

[2] = target: Platelet-activating factor receptor (Homo sapiens, UniProt P25105); format: tissue-based; further: in other assays of this panel Not Active means under 50% inhibition at 10 µM
[3] = target: Cytochrome P450 2D6 (Homo sapiens, UniProt P10635); details: bti-tn-5b1-4; further: in other assays of this panel Not Active means under 50% inhibition at 10 µM
[4] = DRUGMATRIX: Atrial Natriuretic Factor (ANF) radioligand binding (ligand: [125I] ANF (rat)); format: cell membranes, Cavia porcellus, Dunkin-Hartley, Adrenal gland, Membrane; details: Not Active = under 50% inhibition at 10 µM
[5] = target: T2, Cytochrome P450 2A6 (Homo sapiens, UniProt P11509); details: bti-tn-5b1-4; further: in other assays of this panel Not Active means under 50% inhibition at 10 µM
T2 sequence (P11509 whole entry): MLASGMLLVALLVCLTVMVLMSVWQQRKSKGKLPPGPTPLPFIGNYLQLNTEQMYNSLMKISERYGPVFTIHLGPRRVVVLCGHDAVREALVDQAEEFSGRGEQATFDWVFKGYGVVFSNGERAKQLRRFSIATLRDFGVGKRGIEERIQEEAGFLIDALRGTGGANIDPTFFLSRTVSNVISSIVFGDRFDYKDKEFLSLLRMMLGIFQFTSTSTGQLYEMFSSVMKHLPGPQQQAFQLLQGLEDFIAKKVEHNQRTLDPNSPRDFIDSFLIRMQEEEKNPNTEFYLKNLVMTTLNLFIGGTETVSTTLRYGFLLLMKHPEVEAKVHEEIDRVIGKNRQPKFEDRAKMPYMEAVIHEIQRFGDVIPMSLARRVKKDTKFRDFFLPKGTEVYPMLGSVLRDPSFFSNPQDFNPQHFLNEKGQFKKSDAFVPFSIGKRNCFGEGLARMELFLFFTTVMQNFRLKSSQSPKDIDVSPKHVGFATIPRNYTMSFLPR

[6] = target: T3, 5-hydroxytryptamine receptor 2C (Homo sapiens, UniProt P28335); test: DRUGMATRIX: Serotonin (5-Hydroxytryptamine) 5-HT2C radioligand binding (ligand: [3H] Mesulergine); format: cell membranes, CHO-K1, Membrane; details: Not Active = under 50% inhibition at 10 µM; for Ki: read-out: Ki
T3 sequence (P28335 whole entry): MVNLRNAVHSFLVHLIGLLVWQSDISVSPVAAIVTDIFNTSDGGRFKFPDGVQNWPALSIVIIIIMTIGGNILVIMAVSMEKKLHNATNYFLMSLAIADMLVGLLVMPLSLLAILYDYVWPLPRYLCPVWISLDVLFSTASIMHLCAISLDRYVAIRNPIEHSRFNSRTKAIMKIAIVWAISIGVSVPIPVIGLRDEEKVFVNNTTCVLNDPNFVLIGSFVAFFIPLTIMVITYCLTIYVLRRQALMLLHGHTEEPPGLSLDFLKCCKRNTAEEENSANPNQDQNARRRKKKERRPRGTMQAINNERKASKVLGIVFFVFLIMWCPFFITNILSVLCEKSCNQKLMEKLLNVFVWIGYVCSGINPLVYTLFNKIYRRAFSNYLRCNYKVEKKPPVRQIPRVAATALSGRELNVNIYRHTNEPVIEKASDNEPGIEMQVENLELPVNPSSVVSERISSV

[7] = DRUGMATRIX: Leukotriene, BLT (LTB4) radioligand binding (ligand: [3H]LTB4); format: cell membranes, Membrane; details: u-937; Not Active = under 50% inhibition at 10 µM

Sequence of Platelet-activating factor receptor (P25105 whole entry): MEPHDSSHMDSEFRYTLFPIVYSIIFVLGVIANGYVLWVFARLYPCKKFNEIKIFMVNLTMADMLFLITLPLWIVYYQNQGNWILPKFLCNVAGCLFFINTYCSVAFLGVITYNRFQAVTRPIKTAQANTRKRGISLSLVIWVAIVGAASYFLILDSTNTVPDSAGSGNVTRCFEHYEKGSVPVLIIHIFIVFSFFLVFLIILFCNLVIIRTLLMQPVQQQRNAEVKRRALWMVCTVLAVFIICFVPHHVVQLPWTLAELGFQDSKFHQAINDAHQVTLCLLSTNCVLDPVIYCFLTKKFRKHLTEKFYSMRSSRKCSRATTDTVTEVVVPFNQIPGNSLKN
Sequence of Cytochrome P450 2D6 (P10635 whole entry): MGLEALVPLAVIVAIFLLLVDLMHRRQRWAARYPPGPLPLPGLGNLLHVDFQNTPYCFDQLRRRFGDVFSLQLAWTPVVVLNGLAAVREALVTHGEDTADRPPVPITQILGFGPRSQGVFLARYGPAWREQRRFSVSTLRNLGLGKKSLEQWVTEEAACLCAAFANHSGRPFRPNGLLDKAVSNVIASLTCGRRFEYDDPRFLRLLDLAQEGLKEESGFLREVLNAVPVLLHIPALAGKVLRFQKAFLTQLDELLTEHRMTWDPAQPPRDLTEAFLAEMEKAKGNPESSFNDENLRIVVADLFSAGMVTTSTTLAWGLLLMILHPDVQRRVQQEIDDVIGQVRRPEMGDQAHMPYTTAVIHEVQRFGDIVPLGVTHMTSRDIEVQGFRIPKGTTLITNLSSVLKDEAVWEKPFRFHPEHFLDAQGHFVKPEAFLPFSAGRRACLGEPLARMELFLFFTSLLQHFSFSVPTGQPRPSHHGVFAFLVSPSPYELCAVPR

Row | SMILES | IC50 [1] | IC50 [2] | IC50 [3] | Ki [3] | IC50 [4] | Ki [4] | IC50 [5] | Ki [5] | IC50 ([6]; cho-k1) | IC50 [7] | Ki [7] | IC50 ([6]; read-out: IC50) | Ki [6]
1 | C[C@H]1O[C@@H](n2cc(F)c(=O)[nH]c2=O)[C@H](O)[C@@H]1O [DOXIFLURIDINE] | Not Active | Not Active | Not Active | Not Active | Not Active | Not Active | Not Active | Not Active | Not Active | Not Active | Not Active |  | 
2 | Cn1c(=O)c2c(ncn2CC(O)CO)n(C)c1=O (centres undefined) [DYPHYLLINE] | Not Active | Not Active | Not Active | Not Active | Not Active | Not Active | Not Active | Not Active | Not Active | Not Active | Not Active |  | 
3 | CC[C@H]1CN2CCc3cc(OC)c(OC)cc3[C@@H]2C[C@@H]1C[C@H]1NCCc2cc(OC)c(OC)cc21 [EMETINE] | Not Active | Not Active | Not Active | Not Active | Not Active | Not Active | Not Active | Not Active | Not Active | Not Active | Not Active |  | 
4 | C[C@@H](CO)NC(=O)[C@@H]1C=C2c3cccc4[nH]cc(c34)C[C@H]2N(C)C1 [ERGONOVINE] | Not Active | Not Active | Not Active | Not Active | Not Active | Not Active | Not Active | Not Active |  | Not Active | Not Active | 21 nM | 11 nM
5 | COC(=O)CCc1ccc(OCC(O)CNC(C)C)cc1 (centres undefined) [ESMOLOL] | Not Active | Not Active | Not Active | Not Active | Not Active | Not Active | Not Active | Not Active | Not Active | Not Active | Not Active |  | 
6 | CCC1(C)CC(=O)NC1=O (centres undefined) [ETHOSUXIMIDE] | Not Active | Not Active | Not Active | Not Active | Not Active | Not Active | Not Active | Not Active | Not Active | Not Active | Not Active |  | 
7 | C#C[C@]1(OC(C)=O)CC[C@H]2[C@@H]3CCC4=C[C@@H](OC(C)=O)CC[C@@H]4[C@H]3CC[C@@]21C [ETHYNODIOL DIACETATE] | Not Active | Not Active | Not Active | Not Active | Not Active | Not Active | Not Active | Not Active | Not Active | Not Active | Not Active |  | 
8 | C=CCc1ccc(O)c(OC)c1 [EUGENOL] | Not Active | Not Active | Not Active | Not Active | Not Active | Not Active | Not Active | Not Active | Not Active | Not Active | Not Active |  | 
9 | CC(C(=O)O)c1cccc(Oc2ccccc2)c1 (centres undefined) [FENOPROFEN] | Not Active | Not Active | Not Active | Not Active | Not Active | Not Active | Not Active | Not Active | Not Active | Not Active | Not Active |  | 
10 | CC(C)(C)NC(=O)[C@H]1CC[C@H]2[C@@H]3CC[C@H]4NC(=O)C=C[C@]4(C)[C@H]3CC[C@]12C [FINASTERIDE] | Not Active | Not Active | Not Active | Not Active | Not Active | Not Active | Not Active | Not Active | Not Active | Not Active | Not Active |  | 
11 | Nc1ccn([C@@H]2O[C@H](CO)[C@@H](O)C2(F)F)c(=O)n1 [GEMCITABINE] | Not Active | Not Active | Not Active | Not Active | Not Active | Not Active | Not Active | Not Active | Not Active | Not Active | Not Active |  | 
12 | N=C(N)NC(=O)Cc1c(Cl)cccc1Cl [GUANFACINE] | Not Active | Not Active | Not Active | Not Active | Not Active | Not Active | Not Active | Not Active |  | Not Active | Not Active | 1450 nM | 761 nM
13 | Oc1c(Cl)cc(Cl)c(Cl)c1Cc1c(O)c(Cl)cc(Cl)c1Cl [HEXACHLOROPHENE] | Not Active | Not Active | Not Active | Not Active | Not Active | Not Active | Not Active | Not Active |  | Not Active | Not Active | 4600 nM | 2410 nM
14 | NNc1nncc2ccccc12 [HYDRALAZINE] | Not Active | Not Active | Not Active | Not Active | Not Active | Not Active | Not Active | Not Active | Not Active | Not Active | Not Active |  | 
15 | CC(C)NNC(=O)c1ccncc1 [IPRONIAZID] | Not Active | Not Active | Not Active | Not Active | Not Active | Not Active | Not Active | Not Active | Not Active | Not Active | Not Active |  | 
16 | O=c1cc(N2CCOCC2)oc2c(-c3ccccc3)cccc12 [LY-294002] | Not Active | Not Active | Not Active | Not Active | Not Active | Not Active | Not Active | Not Active |  | Not Active | Not Active | 1000 nM | 525 nM
17 | COc1ccc2[nH]cc(CCNC(C)=O)c2c1 [MELATONIN] | Not Active | Not Active | Not Active | Not Active | Not Active | Not Active | Not Active | Not Active | Not Active | Not Active | Not Active |  | 
18 | NC(=O)C[S+]([O-])C(c1ccccc1)c1ccccc1 (centres undefined) [MODAFINIL] | Not Active | Not Active | Not Active | Not Active | Not Active | Not Active | Not Active | Not Active | Not Active | Not Active | Not Active |  | 
19 | CCN(CC)CCOCCC1=CCC2CC1C2(C)C (centres undefined) [MYRTECAINE] | Not Active | Not Active | Not Active | Not Active | Not Active | Not Active | Not Active | Not Active | Not Active | Not Active | Not Active |  | 
20 | O=C(O)c1cccnc1Nc1cccc(C(F)(F)F)c1 [NIFLUMIC ACID] | Not Active | Not Active | Not Active | Not Active | Not Active | Not Active | Not Active | Not Active | Not Active | Not Active | Not Active |  | 
